{
  "source": "patent EP1136472A1",
  "about": "“ARYL- AND HETEROARYLAMIDES OF CARBOALKOXYSULFANILIC ACIDS” (priority 1998, dated 2000)",
  "key": {"[1]": {"test_system": "Mycobacterium tuberculosis H37RV", "assay": "Antimicrobial action, serial dilution method", "assay_type": "cell-based", "settings": "72-hour cultivation at 37°C"}, "[2]": {"test_system": "Herpes Simplex virus of the type I (HSV-I /Leningrad/248/88)", "assay": "Antiviral effect on Herpes Simplex virus (cytopathogenic action on Vero cells)", "assay_type": "cell-based", "settings": "compound concentration of 100 µg/ml; for Quantity of the unchanged cells: number of cells in 100 visual fields, after 36 hours; for percentage of protection: protection of cells from virus as compared to the control of cell culture"}, "[3]": {"test_system": "C.trachomatis D323", "assay": "Antichlamydial activity in infected cell culture (McCoy and L929)", "assay_type": "cell-based, Chlamydia trachomatis", "settings": "100 mg/l; for percentage of cell protection from infection / Number of unchanged cells: 48 hours; for Number of unchanged cells: counted in 100 visual fields", "protocol": "The antichlamydial activity of the claimed compounds was studied in respect to C.trachomatis […], which is a standard strain contained in the collection of the department of microbiology of St. Petersburg State Pavlov Medical University. […] Cell cultures McCoy and L929 obtained from the Institute of Cytology of RAS were used in this work. Cells were grown in flasks made of neutral glass in the medium RPMI-1640 containing 10% of fetal calf serum. The test was performed in flat-bottom flasks made of glass (non-toxic), that were supplied with cover glasses. The cells were introduced into the medium in the final concentration of 1x10^6 cell/ml. […] Simultaneously, tested compounds in a final concentration of 100 mg/l were added to the cells. The sample was centrifuged at 2400 G for 60 minutes at a room temperature and incubated at 37°C for 2 hours. […] The samples were doubled using the medium without cycloheximide so as to exclude its effect on the investigated compounds. The samples were incubated for 48 hours in CO2-incubator. The controls included: • 1. Control of cell culture • 2. Control of action of solvents • 3. Control of action of chlamydia in absence of any compounds • 4. […] Control of the tested compounds as to toxicity in respect to the cell culture. Evaluation of the results was carried out by the way of determination of chlamydial cytoplasmatic inclusions (CPI) that was conducted by the method of immunofluorescence (MicroTrack Chlamydia trachomatis Direct Specimen Test), and by the way of determination of chlamydia antigens that was conducted by means of CylaMonoScreen (Russian-British Joint Venture 66 Regent's Parc Road London NW1 7SX). The effect of the action of compound was determined by analysis of the monolayer state and number of cells with CPI when compared with the control (cell culture infected with C.trachomatis […]); in doing so, the number of unchanged cells, that were counted in 100 visual fields obtained using the eyepiece-micrometer, was taken into consideration."}, "[4]": {"test_system": "alanine-aminotranspherase (AlAT)", "assay": "Hepatoprotective activity, CCl4 liver damage in rats", "assay_type": "in vivo", "protocol": "CCl4 dissolved in 50% olive oil (1 ml/kg) was subcutaneously administrated to rats. Test substances were administrated perorally in a dose of 20 mg/kg 30 minutes before and 7 hours after the CCL4 administration. The activity of alanine-aminotranspherase (AlAT), which is a marker enzyme of liver parenchyma damage, was assessed twenty-four hours later. Reducing of enzyme amount by more than 30% relative to the control group was considered as evidence of hepatoprotective properties of the substance. Vitamin E in a dose of 100 mg/kg was used as a reference agent."}, "[5]": {"test_system": "Human's platelet aggregation", "assay": "Antiaggregational properties, ADP-induced platelet aggregation in platelet-rich plasma", "assay_type": "cell-based", "settings": "adenosine diphosphate 2.5 µmol/l", "protocol": "Human's platelet aggregation was investigated in plasma of healthy 50±3 years donors that was enriched by thrombocytes, by means of aggregometer FRM-1. The substance under investigation was added to blood plasma samples (100 µg/ml) before inducing aggregation by means of adenosine diphosphate (2.5 µmol/l). Magnitude of the maximum non-reversible platelet aggregation in the control samples (solvent) was adopted as 100%, and that in tested samples was counted as percentage compared to the control. Inhibition of the aggregation by more than 50% at the given concentration was evaluated as meaningful inhibition. Adenosine (5 µg/ml) and aspirin (9 µg/ml), that inhibit aggregation at these concentrations by 100%, were utilized as reference agents."}, "[6]": {"assay_type": "in vivo", "settings": "mice, observed 72 hours, 300 was the maximally utilized", "protocol": "Tested substance was introduced perorally (in dose of 300 mg/kg) through a gastric tube or intraperitoneally (in dose of 100 mg/kg) to no-breed white mice with mass 18-20 g (each tested group consisted of 3 males and 3 females). Then the mouse state was observed during 72 hours. Absence of symptoms characteristic of toxic effects, or absence of animal death during the given time allows to make a conclusion that the toxicity of the tested substance is low."}, "[7]": {"test_system": "primary culture of human lymphocytes", "assay": "Interferon-inducing activity in primary culture of human lymphocytes (IFN-α immunoenzyme test)", "assay_type": "cell-based", "protocol": "Interferon synthesis induction caused by the claimed compounds was conducted on a primary culture of human lymphocytes (it is these cells in a human organism that are the main producers of interferons). To obtain lymphocyte culture, fresh blood (within 12 hours after sampling) from healthy donors (not of group II) was used. To separate lymphocytes, heparinized blood obtained from healthy donor was centrifuged in a density gradient ficoll-verografin of […] in order to extract a fraction of immunocompetent cells. This fraction was selected and diluted with the nutrient medium RPMI-1640, containing 5% of fetal calf serum, 0.3 mg/ml of L-glutamin, 100 un/ml of penicillin, and 50 µg/ml of streptomycin. The concentration of lymphocytes was considered after dying them with methylene blue and calculation of cell number in a chamber of a hemocytometer. Initial solutions of the claimed compounds were diluted with the nutrient medium RPMI-1640 so that the final concentrations of the compounds, which were obtained after introduction of lymphocyte suspension, constituted the raw: 100 µg/ml, 10 µg/ml, 1 µg/ml. The final concentration of lymphocytes in the induction mixture was 3x10^6 cell/ml.\nControl and test samples were incubated for 24 hours at the temperature of 37°C. After incubation, the samples were centrifuged at 2,000 G to deposit cell elements, and IFN-containing supernatant was separate out of the samples; then the supernatant was analyzed for the quantitative content of IFN. Cell deposition was resuspended in the preceding volume of nutrient medium, colored with vital dye trypan blue, and cell number was counted in a chamber of a hemocytometer (as described above) to determine cytotoxic action of the compounds.\nQuantitative determination of the content of IFN in control and test samples was conducted using the immunoenzyme test system Pro Con IF2 Plus, that is intended for determination of IFN-α, which is produced by TOO \"Protein contour\". The solid-phase immunoenzyme method, utilizing horse radish peroxidase as an indicator enzyme, was used to determine the quantity of interferon in the samples. Activity of the bonded peroxidase was measured using an automatic photometer for microplates with a microprocessor at the wavelength of 450 nm.\nBased on the obtained results, a calibrating curve was formed, which allows to obtain data expressed in international units (IU) of activity, using the microprocessor of the automatic photometer. The results of the analysis are expressed in IU of activity of IFN per ml in the given induction system, which contains 3x10^6 lymphocyte/ml. Each test and control point was investigated in four parallels.\nControls of immunoenzyme reaction: • 1. Control of DMSO with a nutrient medium. • 2. Control of system components (according to an instruction).\nThe obtained data were undergone a statistical analysis using t-criterion, and calculation of the confident interval of probability at p=0.05 was carried out. Coincidence between the results obtained in the parallel tests was analyzed."}, "[8]": {"settings": "Mycobacterium tuberculosis, H37RV, read-out: MIC"}},
  "note": "Where two headings read alike, the source gives them in different places.",
  "data": [
    {"compound": "CC[C@@H](CO)NCCN[C@@H](CC)CO", "note": "[Ethambutol]", "values": [
      {"measurement": "MIC", "setting": "[1]; [8]", "value": 5, "unit": "µg/mL"}
    ]},
    {"compound": "Rifampycin", "values": [
      {"measurement": "MIC", "setting": "[1]", "value": 0.05, "unit": "µg/mL"}
    ]},
    {"compound": "CCCCCCOC(=O)Nc1ccc(S(=O)(=O)Nc2ccccc2C)cc1", "note": "[XXIX, Carbohexoxysulfanylic acid (2-toluyl)amide]", "values": [
      {"measurement": "Quantity of the unchanged cells", "setting": "[2]", "value": 6000},
      {"measurement": "percentage of protection", "setting": "[2]", "value": 60, "unit": "%"},
      {"measurement": "activity against chlamydia (in words)", "setting": "[3]", "value": "marked biological activity against chlamydia"},
      {"measurement": "percentage of cell protection from infection", "setting": "[3]", "value": 55, "unit": "%"},
      {"measurement": "Number of unchanged cells", "setting": "[3]", "value": 4.400},
      {"measurement": "% of reducing AlAT", "setting": "[4]; perorally 20 mg/kg 30 minutes before and 7 hours after CCl4, AlAT twenty-four hours later, relative to the control group", "value": -36, "unit": "%"},
      {"measurement": "% of inhibition", "setting": "[5]; 100 µg/ml", "value": "33.3±8.2", "unit": "%"}
    ]},
    {"compound": "Nc1ncnc2c1ncn2[C@@H]1O[C@H](CO)[C@@H](O)[C@H]1O", "note": "[Adenosine]", "values": [
      {"measurement": "inhibition at 5 µg/mL", "setting": "[5]; Homo sapiens, Platelet, 5 µg/ml", "value": 100, "unit": "%"}
    ]},
    {"compound": "CCCCOC(=O)Nc1ccc(S(=O)(=O)Nc2ccc([N+](=O)[O-])cc2)cc1", "note": "[VII, Carbobutoxysulfanylic acid (4-nitrophenyl)amide]", "values": [
      {"measurement": "Quantity of the unchanged cells", "setting": "[2]", "value": 8000},
      {"measurement": "percentage of protection", "setting": "[2]", "value": 80, "unit": "%"},
      {"measurement": "Maximal tolerable dose: Concentration of tested compounds at oral introducing", "setting": "[6]", "value": 300, "unit": "mg/L"}
    ]},
    {"compound": "[H]/N=C(/N)N[C@H]1[C@H](O)[C@@H](O)[C@H](O[C@@H]2O[C@@H](C)[C@](O)(C=O)[C@H]2O[C@@H]2O[C@@H](CO)[C@H](O)[C@@H](O)[C@@H]2NC)[C@@H](N/C(N)=N\\[H])[C@@H]1O", "note": "[Streptomycin]", "values": [
      {"measurement": "MIC", "setting": "[1]; [8]", "value": 0.2, "unit": "µg/mL"}
    ]},
    {"compound": "Carboheptoxysulfanylic acid (1,2,4-thiadiazole-2-hexyl-5-yl)amide [XXXIV]", "values": [
      {"measurement": "MIC", "setting": "[1]", "value": 50, "unit": "µg/mL"}
    ]},
    {"compound": "CC(=O)Oc1ccccc1C(=O)O", "note": "[Aspirin, aspirin]", "values": [
      {"measurement": "inhibition at 9 µg/mL", "setting": "[5]; Homo sapiens, Platelet, 9 µg/ml", "value": 100, "unit": "%"}
    ]},
    {"compound": "CC1COc2c(N3CCN(C)CC3)c(F)cc3c(=O)c(C(=O)O)cn1c23", "note": "(stereo not drawn) [Ofloxacin]", "values": [
      {"measurement": "MIC", "setting": "[1]; [8]", "value": 0.5, "unit": "µg/mL"}
    ]},
    {"compound": "Vitamin E [reference compound]", "values": [
      {"measurement": "% of reducing AlAT", "setting": "[4]; Vitamin E in a dose of 100 mg/kg, reference agent", "value": -30, "unit": "%"}
    ]},
    {"compound": "NNC(=O)c1ccncc1", "note": "[Isoniazid]", "values": [
      {"measurement": "MIC", "setting": "[1]; [8]", "value": 0.1, "unit": "µg/mL"}
    ]},
    {"compound": "CCCCCOC(=O)Nc1ccc(S(=O)(=O)Nc2c(C)n(C)n(-c3ccccc3)c2=O)cc1", "note": "[XLI, Carbopentoxysulfanylic acid (1,5-dimethyl-2-phenylpyrazolone-4-yl)-amide]", "values": [
      {"measurement": "Quantity of the unchanged cells", "setting": "[2]", "value": 7500},
      {"measurement": "percentage of protection", "setting": "[2]", "value": 75, "unit": "%"},
      {"measurement": "Content of IFN in induction mixture after 24-hour incubation", "setting": "[7]; 1 mg/l", "value": "5 ± 0.4", "unit": "IU/3x10^4 lymph./ml"},
      {"measurement": "Content of IFN in induction mixture after 24-hour incubation", "setting": "[7]; 10 mg/l", "value": "18.7 ± 0.2", "unit": "IU/3x10^4 lymph./ml"},
      {"measurement": "Content of IFN in induction mixture after 24-hour incubation", "setting": "[7]; 100 mg/l", "value": "69 ± 1", "unit": "IU/3x10^4 lymph./ml"},
      {"measurement": "activity against chlamydia (in words)", "setting": "[3]", "value": "marked biological activity against chlamydia"},
      {"measurement": "percentage of cell protection from infection", "setting": "[3]", "value": 55, "unit": "%"},
      {"measurement": "Number of unchanged cells", "setting": "[3]", "value": 4.400}
    ]}
  ]
}
